# Assay results reported in patent publication US7825256B2, “Inducible nitric oxide synthase dimerization inhibitors” (Kalypsys, Inc., priority 2004, dated 2010).
# Legend:
# rat = assay: Carrageenan test (inflamed pain); type: in vivo; conditions: inhibition class
# Source text: Injection of carrageenan subcutaneously into the hind foot (paw) of a rat induces robust inflammation and pain. The inflammatory response begins 1-2 hrs post-carrageenan injection and persists for at least five hours following inoculation. In addition, the rat's inflamed hind paw is sensitive to noxious (hyperalgesia) or innocuous (allodynia) stimuli, compared to the contralateral hind paw. Compounds can be evaluated in this model for anti-hyperalgesia and anti-inflammatory activity. […] It is possible that some compounds will affect the inflamed paw and not affect the responses of the contralateral paw.
# Embodiments of the carrageenan foot edema test are performed with materials, reagents and procedures essentially as described by Winter, et al., (Proc. Soc. Exp. Biol. Med., 111, 544 (1962)). […] The rats are evaluated for their responsiveness to noxious (paw pinch, plantar test) or innocuous (cold plate, von Frey filaments) stimuli.
# In a prophylactic embodiment, following determination of “Pre-carrageenan” responses, a subplantar injection of the test compound or a placebo are administered. […] Three hours (and optionally five hours) after carrageenan injection, the rats are evaluated for their responsiveness to noxious or innocuous stimuli and the paw volume was again measured. […]
# iNOS = target: T1, iNOS (Rattus norvegicus, UniProt Q06518); assay: LPS challenge (LPS induced iNOS in vivo); conditions: for ED50: ED50 class
# T1 construct: from tissue; host or cells: whole animal: male Lewis rats after LPS injection; blood samples collected
# Source text: Inhibition of induction of iNOS can be quantified via the LPS challenge. Inflammation, edema, and the onset of sepsis can be observed following an injection of lipopolysaccharide (LPS), a substance produced by Gram-negative bacteria. […] (Iuvone T et al., Evidence that inducible nitric oxide synthase is involved in LPS-mediated plasma leakage in rat skin through the activation of nuclear factor-κB, Br J Pharm 1998:123 1325-1330.) As described above, the level of nitric oxide in the specimen can be quantified by correlation with plasma nitrate or nitrite levels via chemiluminescence, fluorescence, spectrophotometric assays, or by any method known in the art which provides adequate sensitivity and reproducibility, including those described above.
# Male Lewis rats weighing 150-250 g are used in the studies. Rats may be fasted for up to 16 hours prior to the administration of LPS. Free access to water is maintained. Test compounds are administered with LPS or alone. Compounds are dissolved in the vehicle of 0.5% methycele/0.025% Tween 20 or 20% encapsin for oral administration. For the intravenous dosing, compounds are dissolved in saline or 0.5-3% DMSO/20% encapsin. The dosing volumes are 1-2 ml for oral and 0.3-1 ml for intravenous administration.
# LPS is injected intravenously (under anesthesia) or intraperitoneally in sterile saline at a dose between 0.1-10 mg/kg in a volume not excess to 1 ml. The needle is 26-30 gauge. […] In routine screening experiments, rats are sacrificed 1.5-6 hr after LPS injection and a terminal bleeding is performed under anesthesia to collect 1-3 ml blood samples and then animals are then euthanized by CO2.
Structure (SMILES),Carrageenan Inflamed Pain at 30 mg/kg (rat),ED50 (iNOS) [mg/kg],inhibition at 16 mg/kg (iNOS; at 16 mg/kg) [%]
"CN(CCCNCc1ccc2c(c1)OCO2)c1nc(-n2ccnc2)ns1 [Example 2, N′-Benzo[1,3]dioxol-5-ylmethyl-N-(3-imidazol-1-yl-[1,2,4]thiadiazol-5-yl)-N-methyl-propane-1,3-diamine]",− ((−) = <40% inhibition),< 10,
"Cc1cc(C2CCCN2C(=O)NCCc2ccc3c(c2)OCO3)nc(-n2ccnc2)n1 (stereo not shown) [Example 4, 2-(2-Imidazol-1-yl-6-methyl-pyrimidin-4-yl)-pyrrolidine-1-carboxylic acid (2-benzo[1,3]dioxol-5-yl-ethyl)-amide]",,< 10,
Cc1cc(C2CCCN2C(=O)CNCc2ccc3c(c2)OCO3)nc(-n2ccnc2)n1 (stereo not shown) [Example 5],,,64
